Measurements from PubChem BioAssay (NCI).
“And” between values parts separate entries of the source, which are not always exact repeats. Identical values can stand only once.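 48-hour exposure; five concentrations; linearly interpolated endpoints. Abbreviation: GI50, concentration required for 50% inhibition of growth. TGI is the concentration that stops growth completely.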

Key:
Experiment in all cases: DTP human tumour cell line panel, 48 h
HCC-2998 colon = test system: HCC-2998 colon
IGROV1 ovarian = test system: IGROV1 ovarian
NCI-H23 lung = test system: NCI-H23 lung
SK-MEL-5 melanoma = test system: SK-MEL-5 melanoma
SNB-19 CNS = test system: SNB-19 CNS
SNB-75 CNS = test system: SNB-75 CNS
SW-620 colon = test system: SW-620 colon
HL-60(TB) leukemia = test system: HL-60(TB) leukemia
MCF7 breast = test system: MCF7 breast
NCI/ADR-RES ovarian = test system: NCI/ADR-RES ovarian

SMILES	GI50 (HCC-2998 colon)	TGI (HCC-2998 colon)	GI50 (IGROV1 ovarian)	TGI (IGROV1 ovarian)	GI50 (NCI-H23 lung)	TGI (NCI-H23 lung)	GI50 (SK-MEL-5 melanoma)	TGI (SK-MEL-5 melanoma)	GI50 (SNB-19 CNS)	TGI (SNB-19 CNS)	GI50 (SNB-75 CNS)	TGI (SNB-75 CNS)	GI50 (SW-620 colon)	TGI (SW-620 colon)	TGI (HL-60(TB) leukemia)	GI50 (MCF7 breast)	TGI (MCF7 breast)	GI50 (NCI/ADR-RES ovarian)	TGI (NCI/ADR-RES ovarian)	GI50 (HL-60(TB) leukemia)
C1COCCN1.C1COCCN1.N.N.[Cl-].[Pt+2]	> 100 µM	> 100 µM	> 100 µM	> 100 µM	> 100 µM	> 100 µM	> 100 µM	> 100 µM	> 100 µM	> 100 µM	> 100 µM	> 100 µM	> 100 µM	> 100 µM	–	–	–	–	–	–
CC(=O)OC1=C2CC3(C)OC(=O)CC(C)(C)C3=CC=C2C=C(C(C)C)C1=O (stereo not drawn)	–	2.15 µM	–	2.46 µM	–	1.47 µM	–	2.12 µM	–	3.28 µM	–	1.99 µM	–	1.14 µM	0.888 µM	–	–	–	–	–
O=c1[nH]c2ccccc2cc1C(Cl)=C(Cl)Cl	–	> 100 µM	–	> 100 µM	–	> 100 µM	–	–	–	> 100 µM	–	> 100 µM	–	> 100 µM	> 100 µM	–	–	–	–	–
CCCCCCCCCCCCCCCC(=O)NCC(COP(=O)([O-])OCC[N+](C)(C)C)OCC (stereo not drawn)	–	3.1 µM	–	16 µM	–	39.3 µM	–	33.9 µM	–	11 µM	–	23 µM	–	27.4 µM	–	–	–	–	–	–
CN(C)/C(=N/C(=S)Nc1ccccc1)SCc1ccccc1	–	> 100 µM	–	> 100 µM	–	> 100 µM	–	> 100 µM	–	> 100 µM	–	> 100 µM	–	> 100 µM	51.4 µM	–	–	–	–	–
C=C1C(O)C2CCC(C)(C)C(=O)C2=C(CC(C)C)C12CC2 (stereo not drawn)	16.6 µM	65.8 µM	> 100 µM	> 100 µM	66.7 µM	> 100 µM	24.8 µM	> 100 µM	59.5 µM	> 100 µM	93.1 µM	> 100 µM	42 µM	> 100 µM	–	35 µM	> 100 µM	45.4 µM	> 100 µM	–
N/C(CC(=O)Nc1cc(C(F)(F)F)ccc1Cl)=N\O	–	–	–	> 100 µM	–	> 100 µM	–	> 100 µM	–	> 100 µM	–	> 100 µM	–	> 100 µM	> 100 µM	–	> 100 µM	–	> 100 µM	–
Cc1nn(-c2ccc(S(=O)(=O)[O-])cc2)c([O-])c1N=[N+](C)c1ccc(-c2ccc(N=Nc3ccc4c(S(=O)(=O)[O-])cc(S(=O)(=O)[O-])c(N)c4c3[O-])c([O-])c2)cc1[O-].[Cu+2].[Cu+2].[Na+]	> 100 µM	> 100 µM	> 100 µM	> 100 µM	> 100 µM	> 100 µM	> 100 µM	> 100 µM	> 100 µM	> 100 µM	> 100 µM	> 100 µM	> 100 µM	> 100 µM	–	> 100 µM	> 100 µM	> 100 µM	> 100 µM	–
CCOC(=O)CC1=Nc2ccccc2SC1	–	> 100 µM	–	> 100 µM	–	> 100 µM	–	> 100 µM	–	> 100 µM	–	> 100 µM	–	> 100 µM	–	–	–	–	–	–
N#CC1(c2nc3ccccc3o2)C(=O)C(=O)N(C2C3CC4CC(C3)CC2C4)C(=O)C1=O (stereo not drawn)	–	> 100 µM	–	> 100 µM	–	> 100 µM	–	> 100 µM	–	> 100 µM	–	> 100 µM	–	> 100 µM	> 100 µM	–	–	–	–	–
C=C1C(=O)O[C@H]2[C@H]1CC/C(CNC(=O)c1c[nH]c3ccc(F)cc13)=C\CC[C@@]1(C)O[C@@H]21	1.84 µM	3.44 µM	1.63 µM	5.47 µM	1.68 µM	3.8 µM	2.25 µM	5.56 µM	11.9 µM	26.1 µM	1.81 µM	16.2 µM	0.639 µM	2.1 µM	5.95 µM	–	–	4.13 µM	19.3 µM	2.18 µM
COc1ccc(/C=C/C=C(/C#N)C(N)=S)cc1	–	–	28.3 µM	> 100 µM	28.7 µM	> 100 µM	18.3 µM	36.4 µM	26.2 µM	> 100 µM	29.7 µM	99.6 µM	21.3 µM	61.2 µM	> 100 µM	29.5 µM	> 100 µM	–	–	26 µM
O=C(Nc1cccc(-n2ccc3c(NC(=O)c4ccccc4)nccc32)c1)c1cccc(C(F)(F)F)c1	0.0362 µM	> 66.3 µM	0.0844 µM	> 46.9 µM	0.0685 µM	> 46.2 µM	0.0341 µM	0.152 µM	0.0453 µM	> 100 µM	–	–	0.0411 µM	13.4 µM	0.653 µM	0.0362 µM	–	0.0327 µM	> 100 µM	0.0343 µM
Cc1ccn2c3c(c(C(=O)O)c2c1)C(=O)c1ccccc1C3=O	4.58 µM	> 100 µM	> 42.1 µM	> 100 µM	1.74 µM	5.88 µM	0.679 µM	1.97 µM	4.24 µM	> 100 µM	–	–	15.1 µM	> 100 µM	> 100 µM	6.52 µM	97.2 µM	49.8 µM	> 100 µM	> 100 µM
CCc1c2c(nc3cc4c(cc13)OCO4)-c1cc3c(c(=O)n1C2)COC(=O)[C@]3(O)CC	0.0443 µM and 0.361 µM	> 100 µM	0.33 µM and 0.39 µM	> 100 µM	0.00263 µM	1.08 µM	–	0.0648 µM and 0.143 µM	0.0164 µM	0.455 µM	–	–	–	> 100 µM	–	< 0.001 µM	–	–	–	< 0.001 µM
C=CCSC[C@H](NC(=O)COc1ccccc1)C(=O)NC(C(=O)OCc1ccc([N+](=O)[O-])cc1)=C(C)C	–	> 100 µM	–	> 100 µM	–	–	–	> 100 µM	–	–	–	> 100 µM	–	–	> 100 µM	–	–	–	–	–
N#Cc1c(NC(=O)c2cccc(C(F)(F)F)c2)sc2c1CCC(=O)C2	1.61 µM	3.37 µM	0.582 µM	2.09 µM	0.379 µM	2.88 µM	1.3 µM	2.65 µM	0.445 µM	2.36 µM	1.19 µM	3.13 µM	0.3 µM	1.83 µM	3.56 µM	–	–	1.62 µM	7.77 µM	0.576 µM
